Test results published in patent US10723695B2, “Microbiocidal phenylamidine derivatives” (SYNGENTA PARTICIPATIONS AG, priority 2015, dated 2020).

Key:
[1] = system: Phakopsora pachyrhizi; assay: Phakopsora pachyrhizi / soybean / leaf disk preventative (soybean rust); format: in vivo; conditions: foliar, soybean leaf disks, compared to untreated control leaf disks, read-out: disease control
Method: Phakopsora pachyrhizi/Soybean/Leaf Disk Preventative (Soybean Rust) Four-week old soybean plants are sprayed in a spray chamber with the formulated test compound diluted in water. Leaf disks are cut from treated plants and placed on agar into 24-well plates one day after application. Leaf disks are inoculated by spraying them with a spore suspension on their lower leaf surface. After an incubation period in a climate cabinet of 24-36 hours in darkness at 20° C. and 75% rh, the leaf disks are then kept at 20° C. with 12 h light/day and 75% rh. The percentage leaf disk area covered by disease is assessed when an appropriate level of disease appears on untreated check plants (12-14 days after application).

[2] = system: Puccinia recondita f. sp. tritici; assay: Puccinia recondita f. sp. tritici / wheat / leaf disc preventative (brown rust); format: in vivo; conditions: foliar, wheat leaf segments cv. Kanzler, compared to untreated control leaf disks, read-out: disease control
Method: Puccinia recondita f. sp. tritici/Wheat/Leaf Disc Preventative (Brown Rust) Wheat leaf segments cv. Kanzler were placed on agar in multiwell plates (24-well format) and sprayed with the formulated test compound diluted in water. The leaf disks were inoculated with a spore suspension of the fungus 1 day after application. The inoculated leaf segments were incubated at 19° C. and 75% rh under a light regime of 12 h light/12 h darkness in a climate cabinet and the activity of a compound was assessed as percent disease control compared to untreated when an appropriate level of disease damage appears in untreated check leaf segments (7-9 days after application).

[3] = system: Puccinia recondita f. sp. tritici; assay: Puccinia recondita f. sp. tritici / wheat / leaf disc curative (brown rust); format: in vivo; conditions: foliar, 24 h, wheat leaf segments cv. Kanzler, curative (applied 1 day after inoculation), compared to untreated control leaf disks, read-out: disease control
Method: Puccinia recondita f. sp. tritici/Wheat/Leaf Disc Curative (Brown Rust) Wheat leaf segments cv. Kanzler are placed on agar in multiwell plates (24-well format). The leaf segments are inoculated with a spore suspension of the fungus. Plates were stored in darkness at 19° C. and 75% rh. The formulated test compound diluted in water was applied 1 day after inoculation.

[4] = system: Blumeria graminis f. sp. tritici (Erysiphe graminis f. sp. tritici); assay: Blumeria graminis f. sp. tritici / wheat / leaf disc preventative (powdery mildew on wheat); format: in vivo; conditions: foliar, wheat leaf segments cv. Kanzler, compared to untreated control leaf disks, read-out: disease control
Source text: Blumeria graminis f. sp. tritici (Erysiphe graminis f. sp. tritici)/Wheat/Leaf Disc Preventative (Powdery Mildew on Wheat) Wheat leaf segments cv. Kanzler were placed on agar in a multiwell plate (24-well format) and sprayed with the formulated test compound diluted in water. The leaf disks were inoculated by shaking powdery mildew infected plants above the test plates 1 day after application.

melting point [°C]	Structure (SMILES)	pest or weed control at 200 ppm [1] [%]	pest or weed control at 200 ppm [2] [%]	pest or weed control at 200 ppm [3] [%]	pest or weed control at 200 ppm [4] [%]
110 to 111	COc1cc(/N=C/N(C)C(C)C)c(C)cc1C(O)(c1ccccc1)C(F)(F)F (stereo not drawn) [Compound E1.009]	–	≥ 80	≥ 80	–
134 to 135	CCN(C)/C=N/c1cc(OC)c(C(O)(c2ccc(Cl)cc2)C(F)(F)F)cc1C (stereo not drawn) [Compound E1.021]	–	≥ 80	≥ 80	≥ 80
116 to 118	COc1cc(/N=C/N(C)C(C)C)c(C)cc1C(O)(c1ccc(F)c(F)c1)C(F)(F)F (stereo not drawn) [Compound E1.127]	–	–	–	–
108 to 110	CCN(C)/C=N/c1cc(OC)c(C(O)(c2ccc(F)c(F)c2)C(F)(F)F)cc1C (stereo not drawn) [Compound E1.128]	–	–	–	–
127 to 129	COc1cc(/N=C/N(C)C(C)C)c(C)cc1C(O)(c1cccc(F)c1C)C(F)(F)F (stereo not drawn) [Compound E1.131]	–	–	–	–
107 to 109	CCN(C)/C=N/c1cc(OC)c(C(O)(c2cccc(F)c2C)C(F)(F)F)cc1C (stereo not drawn) [Compound E1.132]	–	–	–	–
112 to 115	COc1cc(/N=C/N(C)C(C)C)c(C)cc1C(O)(c1cc(F)ccc1F)C(F)(F)F (stereo not drawn) [Compound E1.135]	–	–	–	–
130 to 132	CCN(C)/C=N/c1cc(OC)c(C(O)(c2cccc(F)c2F)C(F)(F)F)cc1C (stereo not drawn) [Compound E1.143]	–	–	–	–
97 to 99	COc1cc(/N=C/N(C)C(C)C)c(C)cc1C(O)(c1cccc(F)c1F)C(F)(F)F (stereo not drawn) [Compound E1.144]	–	–	–	–
95 to 97	CCN(C)/C=N/c1cc(OC)c(C(O)(c2cc(F)ccc2C)C(F)(F)F)cc1C (stereo not drawn) [Compound E1.145]	–	–	–	–
116 to 118	COc1cc(/N=C/N(C)C(C)C)c(C)cc1C(O)(c1cc(F)ccc1C)C(F)(F)F (stereo not drawn) [Compound E1.146]	–	–	–	–
128 to 130	CCN(C)/C=N/c1cc(OC)c(C(O)(c2c(F)cccc2F)C(F)(F)F)cc1C (stereo not drawn) [Compound E1.147]	–	–	–	–
119 to 121	COc1cc(/N=C/N(C)C(C)C)c(C)cc1C(O)(c1c(F)cccc1F)C(F)(F)F (stereo not drawn) [Compound E1.148]	–	–	–	–
138 to 140	COc1cc(/N=C/N(C)C(C)C)c(C)cc1C(O)(c1ccccc1C)C(F)(F)F (stereo not drawn) [Compound E1.148]	–	–	–	–
110 to 112	COc1cc(/N=C/N(C)C(C)C)c(C)cc1C(O)(c1cc(F)cc(F)c1)C(F)(F)F (stereo not drawn) [Compound E1.149]	–	–	–	–
86 to 88	COc1cc(/N=C/N(C)C(C)C)c(C)cc1C(O)(c1ccccc1F)C(F)(F)F (stereo not drawn) [Compound E1.150]	–	–	–	–
67 to 69	COc1cc(/N=C/N(C)C(C)C)c(C)cc1C(O)(c1ccccc1Cl)C(F)(F)F (stereo not drawn) [Compound E1.151]	–	–	–	–
92 to 94	COc1cc(/N=C/N(C)C(C)C)c(C)cc1C(O)(c1cccc(F)c1)C(F)(F)F (stereo not drawn) [Compound E1.152]	–	–	–	–
120 to 122	COc1cc(/N=C/N(C)C(C)C)c(C)cc1C(O)(c1cccnc1F)C(F)(F)F (stereo not drawn) [Compound E1.158]	–	–	–	–

More lines, now with the values behind:

Structure (SMILES)	melting point [°C]	pest or weed control at 200 ppm [1] [%]	pest or weed control at 200 ppm [2] [%]	pest or weed control at 200 ppm [3] [%]	pest or weed control at 200 ppm [4] [%]
CCOc1cc(/N=C/N(C)CC)c(C)cc1C(O)(c1ccccc1)C(F)(F)F (stereo not drawn) [Compound E1.002]	148 to 151	≥ 80	≥ 80	≥ 80	–
CCN(C)/C=N/c1cc(OC)c(C(O)(c2ccc(C(F)(F)F)cc2)C(F)(F)F)cc1C (stereo not drawn) [Compound E1.019]	124 to 126	–	≥ 80	≥ 80	≥ 80
CCN(C)/C=N/c1cc(OC)c(C(O)(c2ccc(Br)cc2)C(F)(F)F)cc1C (stereo not drawn) [Compound E1.025]	127 to 129	–	≥ 80	≥ 80	≥ 80
CCN(C)/C=N/c1cc(OC)c(C(O)(c2ccccc2SC)C(F)(F)F)cc1C (stereo not drawn) [Compound E1.032]	104 to 106	–	≥ 80	≥ 80	≥ 80
CCN(C)/C=N/c1cc(OC)c(C(O)(c2ccccc2S(C)(=O)=O)C(F)(F)F)cc1C (stereo not drawn) [Compound E1.036]	177 to 180	–	≥ 80	≥ 80	–
CCN(C)/C=N/c1cc(OC)c(C(O)(c2ccc(SC(F)(F)F)cc2)C(F)(F)F)cc1C (stereo not drawn) [Compound E1.037]	64 to 66	≥ 80	–	≥ 80	≥ 80
CCOC(=O)c1ccc(C(O)(c2cc(C)c(/N=C/N(C)CC)cc2OC)C(F)(F)F)cc1 (stereo not drawn) [Compound E1.039]	118 to 120	–	–	≥ 80	≥ 80
CCN(C)/C=N/c1cc(OC)c(C(O)(c2ccc(C#N)cc2)C(F)(F)F)cc1C (stereo not drawn) [Compound E1.040]	167 to 169	–	–	≥ 80	≥ 80
CCN(C)/C=N/c1cc(OC)c(C(O)(c2ccc(SC)cc2)C(F)(F)F)cc1C (stereo not drawn) [Compound E1.041]	89 to 91	–	–	≥ 80	≥ 80
CCN(C)/C=N/c1cc(OC)c(C(O)(c2ccc(O)cc2)C(F)(F)F)cc1C (stereo not drawn) [Compound E1.043]	240 to 242	–	–	≥ 80	≥ 80
CCN(C)/C=N/c1cc(OC)c(C(O)(c2cccc(OC(F)F)c2)C(F)(F)F)cc1C (stereo not drawn) [Compound E1.044]	119 to 121	≥ 80	–	≥ 80	≥ 80
CCN(C)/C=N/c1cc(OC)c(C(O)(c2ccc(OC(F)F)cc2)C(F)(F)F)cc1C (stereo not drawn) [Compound E1.045]	85 to 87	≥ 80	–	≥ 80	≥ 80
CCN(C)/C=N/c1cc(OC)c(C(O)(C#Cc2ccccc2)C(F)(F)F)cc1C (stereo not drawn) [Compound E1.073]	88 to 90	–	≥ 80	–	–
CCN(C)/C=N/c1cc(OC)c(C(O)(C#CC2CCCCC2)C(F)(F)F)cc1C (stereo not drawn) [Compound E1.085]	62 to 64	–	–	≥ 80	–
CCN(C)/C=N/c1cc(OC)c(C(O)(Cc2ccc(Cl)cc2)C(F)(F)F)cc1C (stereo not drawn) [Compound E1.090]	63 to 65	≥ 80	–	≥ 80	≥ 80
CCN(C)/C=N/c1cc(OC)c(C(O)(Cc2cc(C)nc(OC)n2)C(F)(F)F)cc1C (stereo not drawn) [Compound E1.094]	117 to 119	–	≥ 80	≥ 80	≥ 80
CCN(C)/C=N/c1cc(OC)c(C(O)(c2ccc(OC)nc2)C(F)(F)F)cc1C (stereo not drawn) [Compound E1.107]	100 to 102	–	≥ 80	≥ 80	≥ 80
CCN(C)/C=N/c1cc(SC)c(C(O)(c2ccccc2)C(F)(F)F)cc1C (stereo not drawn) [Compound E1.113]	160 to 165	–	–	≥ 80	≥ 80
CCN(C)/C=N/c1cc(OC(C)C)c(C(O)(c2ccccc2)C(F)(F)F)cc1C (stereo not drawn) [Compound E1.115]	119 to 120	–	–	–	–
CCN(/C=N/c1cc(OC)c(C(O)(C(C)C)C(F)(F)F)cc1C)CC (stereo not drawn) [Compound E1.133]	60 to 62	–	–	–	–
CCCCC(O)(c1cc(C)c(/N=C/N2CCCC2)cc1OC)C(F)(F)F (stereo not drawn) [Compound E1.134]	103 to 105	–	–	–	–
COc1cc(/N=C/N2CCCC2)c(C)cc1C(O)(C(C)C)C(F)(F)F (stereo not drawn) [Compound E1.135]	102 to 104	–	–	–	–
COc1cc(/N=C/N2CCCC2)c(C)cc1C(O)(c1ccccc1)C(F)(F)F (stereo not drawn) [Compound E1.135]	157 to 159	–	–	–	–
COc1cc(/N=C/N(C)C)c(C)cc1C(O)(c1ccccc1)C(F)(F)F (stereo not drawn) [Compound E1.137]	133 to 135	–	–	–	–
CCN(/C=N/c1cc(OC)c(C(O)(c2ccccc2)C(F)(F)F)cc1C)CC (stereo not drawn) [Compound E1.139]	102 to 104	–	–	–	–
COc1cc(/N=C/N(C)C(C)C)c(C)cc1C(O)(C=C(C)C)C(F)(F)F (stereo not drawn) [Compound E1.141]	77 to 79	–	–	–	–
CCN(C)/C=N/c1cc(OC)c(C(O)(c2ccccc2)C(F)(F)F)cc1F (stereo not drawn) [Compound E1.153]	144 to 146	–	–	–	–
CCN(C)/C=N/c1cc(OC)c(C(O)(c2cccnc2F)C(F)(F)F)cc1C (stereo not drawn) [Compound E1.157]	113 to 115	–	–	–	–
